Reference: patent US20240343704A1, “HALO-SUBSTITUTED AMINO PYRIDINE COMPOUNDS AS INHIBITORS OF THE HAEMATOPOIETIC PROGENITOR KINASE 1 (HPK1)” (priority 2021, published 2024)

Columns and labels:
[1] = biological target: T1, Recombinant (1-346) HPK1 (h) (Homo sapiens, UniProt Q92918); assay: HPK1 Human STE Kinase Enzymatic Radiometric Assay; assay type: biochemical; settings: read-out: HPK1 IC50 nM Range*
T1 construct: Recombinant (1-346) HPK1 (h) is incubated with 8 mM MOPS pH 7.0
T1 sequence (Q92918 1-346): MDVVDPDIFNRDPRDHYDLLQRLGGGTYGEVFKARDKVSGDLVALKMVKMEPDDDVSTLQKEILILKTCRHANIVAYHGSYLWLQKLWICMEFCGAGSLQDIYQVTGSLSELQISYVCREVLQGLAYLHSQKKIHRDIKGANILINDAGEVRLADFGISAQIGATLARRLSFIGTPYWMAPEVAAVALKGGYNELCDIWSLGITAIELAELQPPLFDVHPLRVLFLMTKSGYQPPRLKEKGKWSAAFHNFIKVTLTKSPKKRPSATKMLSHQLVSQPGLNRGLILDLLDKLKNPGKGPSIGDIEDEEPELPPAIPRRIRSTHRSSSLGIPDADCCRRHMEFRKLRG
Protocol: A stock solution of 10 mM of test compound is prepared in DMSO. The compound plate was prepared by 3-fold and 9-point serial dilutions. […] The reaction is initiated by The addition of the Mg/ATP mix. After incubation for 40 minutes at RT, the reaction is stopped by the addition of phosphoric acid to a concentration of 0.5%.

Lck (h) = Lck (h) (Homo sapiens, UniProt P06239); assay: Lck Human  Kinase Enzymatic Radiometric Assay; assay type: biochemical; settings: read-out: Lck IC50 nM Range*
Summary of the method: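 Substrate 33P-incorporation measured by scintillation counting after spotting on P30 filtermat and phosphoric acid washes. Human Lck reacted 40 min at RT in 50 mM Tris pH 7.5 with 10 mM MgAcetate, [gamma-33P]-ATP, 250 uM Cdc2 peptide, 0.1 mM EGTA and 0.1 mM Na3VO4.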

Sequence of Lck (h) (P06239 whole entry): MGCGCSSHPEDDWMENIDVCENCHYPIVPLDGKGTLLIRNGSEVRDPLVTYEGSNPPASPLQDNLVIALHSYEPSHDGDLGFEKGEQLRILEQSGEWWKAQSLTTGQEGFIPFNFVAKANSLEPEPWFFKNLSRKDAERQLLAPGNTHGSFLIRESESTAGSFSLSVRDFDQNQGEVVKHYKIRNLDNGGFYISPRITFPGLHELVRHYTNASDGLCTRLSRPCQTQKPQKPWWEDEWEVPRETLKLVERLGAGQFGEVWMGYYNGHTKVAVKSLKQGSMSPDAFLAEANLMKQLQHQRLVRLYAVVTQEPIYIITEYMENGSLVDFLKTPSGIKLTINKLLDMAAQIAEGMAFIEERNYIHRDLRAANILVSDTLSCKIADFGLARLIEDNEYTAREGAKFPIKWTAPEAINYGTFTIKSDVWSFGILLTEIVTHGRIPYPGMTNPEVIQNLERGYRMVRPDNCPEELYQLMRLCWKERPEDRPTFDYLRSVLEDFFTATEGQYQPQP

Row | Structure (SMILES) | IC50 [1] | IC50 (Lck (h))
1 | Nc1nc(F)c(-c2ccc(N3CC[C@@H](F)C3)cc2)cc1-c1ccc2c(c1)CCNC2=O [I-112, (R)-6-(2-amino-6-fluoro-5-(4-(3-fluoropyrrolidin-1-yl)phenyl)pyridin-3-yl)-3,4-dihydroisoquinolin-1(2H)-one] | 11 to 100 nM | > 1000 nM
2 | Nc1nc(F)c(-c2ccc(N3CC[C@H](F)C3)cc2)cc1-c1ccc2c(c1)CCNC2=O [I-113, (S)-6-(2-amino-6-fluoro-5-(4-(3-fluoropyrrolidin-1-yl)phenyl)pyridin-3-yl)-3,4-dihydroisoquinolin-1(2H)-one] | 11 to 100 nM | > 1000 nM
3 | CO[C@H]1CCN(c2ccc(-c3cc(-c4ccc5c(c4)CCNC5=O)c(N)nc3F)cc2)C1 [I-115, (S)-6-(2-amino-6-fluoro-5-(4-(3-methoxypyrrolidin-1-yl)phenyl)pyridin-3-yl)-3,4-dihydroisoquinolin-1(2H)-one] | 0.1 to 10 nM | > 1000 nM
4 | CS(=O)(=O)[C@@H]1CCN(c2ccc(-c3cc(-c4ccc5c(c4)CCNC5=O)c(N)nc3F)cc2)C1 [I-116, (R)-6-(2-amino-6-fluoro-5-(4-(3-(methylsulfonyl)pyrrolidin-1-yl)phenyl)pyridin-3-yl)-3,4-dihydroisoquinolin-1(2H)-one] | 0.1 to 10 nM | > 1000 nM
5 | Nc1nc(F)c(-c2ccc(C3CCN(CCO)CC3)cc2)cc1-c1ccc2c(c1)CCNC2=O [I-119, 6-(2-amino-6-fluoro-5-(4-(1-(2-hydroxyethyl)piperidin-4-yl)phenyl)pyridin-3-yl)-3,4-dihydroisoquinolin-1(2H)-one] | 0.1 to 10 nM | > 1000 nM
6 | CCN1CC=C(c2ccc(-c3cc(-c4ccc5c(c4)CCNC5=O)c(N)nc3F)cc2)C1 [I-120, 6-(2-amino-5-(4-(1-ethyl-2,5-dihydro-1H-pyrrol-3-yl)phenyl)-6-fluoropyridin-3-yl)-3,4-dihydroisoquinolin-1(2H)-one] | 0.1 to 10 nM | > 1000 nM
7 | CC(C)N1CC=C(c2ccc(-c3cc(-c4ccc5c(c4)CCNC5=O)c(N)nc3F)cc2)C1 [I-121, 6-(2-amino-6-fluoro-5-(4-(1-isopropyl-2,5-dihydro-1H-pyrrol-3-yl)phenyl)pyridin-3-yl)-3,4-dihydroisoquinolin-1(2H)-one] | 0.1 to 10 nM | > 1000 nM

Results, then the compound that gave them:

Row | IC50 [1] | IC50 (Lck (h)) | Structure (SMILES)
8 | 11 to 100 nM | > 1000 nM | CO[C@@H]1CCN(c2ccc(-c3cc(-c4ccc5c(c4)CCNC5=O)c(N)nc3F)cc2)C1 [I-114, (R)-6-(2-amino-6-fluoro-5-(4-(3-methoxypyrrolidin-1-yl)phenyl)pyridin-3-yl)-3,4-dihydroisoquinolin-1(2H)-one]
9 | 0.1 to 10 nM | > 1000 nM | CS(=O)(=O)[C@H]1CCN(c2ccc(-c3cc(-c4ccc5c(c4)CCNC5=O)c(N)nc3F)cc2)C1 [I-117, (S)-6-(2-amino-6-fluoro-5-(4-(3-(methylsulfonyl)pyrrolidin-1-yl)phenyl)pyridin-3-yl)-3,4-dihydroisoquinolin-1(2H)-one]
10 | 0.1 to 10 nM | > 1000 nM | CN1C=NN(c2ccc(-c3cc(-c4ccc5c(c4)CCNC5=O)c(N)nc3F)cc2)CC1 [I-118, 6-(2-amino-6-fluoro-5-(4-(4-methyl-5,6-dihydro-1,2,4-triazin-1(4H)-yl)phenyl)pyridin-3-yl)-3,4-dihydroisoquinolin-1(2H)-one]
11 | 0.1 to 10 nM | > 1000 nM | COCCN1CCCC(c2ccc(-c3cc(-c4ccc5c(c4)CCNC5=O)c(N)nc3F)cc2)C1 (stereo not drawn) [I-122, 6-(2-amino-6-fluoro-5-(4-(1-(2-methoxyethyl)piperidin-3-yl)phenyl)pyridin-3-yl)-3,4-dihydroisoquinolin-1(2H)-one]
12 | 0.1 to 10 nM | > 1000 nM | Nc1nc(F)c(-c2ccc(C3=CCN(CCO)C3)cc2)cc1-c1ccc2c(c1)CCNC2=O [I-123, 6-(2-amino-6-fluoro-5-(4-(1-(2-hydroxyethyl)-2,5-dihydro-1H-pyrrol-3-yl)phenyl)pyridin-3-yl)-3,4-dihydroisoquinolin-1(2H)-one]
